Common to all, as to assay type: in vivo
The subject of assay [1] is Alopecurus myosuroides (ALOMY). The experiment in a line: Post-emergence herbicidal activity, glasshouse pot test. The conditions noted are these: rate 250 g/ha, evaluated after 13 days, 100=total damage to plant, 0=no damage to plant; for pest or weed control at 250 g/ha: Alopecurus myosuroides, 312 h. The protocol:
(§1) Seeds of a variety of test species were sown in standard soil in pots. After cultivation for one day (pre-emergence) or after 8 days cultivation (post-emergence) under controlled conditions in a glasshouse (at 24/16° C., day/night; 14 hours light; 65% humidity), the plants were sprayed with an aqueous spray solution derived from the formulation of the technical active ingredient in acetone/water (50:50) solution containing 0.5% Tween 20 (polyoxyethelyene sorbitan monolaurate, CAS RN 9005-64-5). The test plants were then grown in a glasshouse under controlled conditions in a glasshouse (at 24/16° C., day/night; 14 hours light; 65% humidity) and watered twice daily. After 13 days for pre and post-emergence, the test was evaluated (100=total damage to plant; 0=no damage to plant). Test Plants: Lolium perenne (LOLPE), Alopecurus myosuroides (ALOMY), Echinochloa crus-galli (ECHCG), and Avena fatua (AVEFA). Post-Emergence Activity

For assay [2], the system named is Echinochloa crus-galli (ECHCG). The assay is described as above. The settings on record: Echinochloa crus-galli, 312 h, rate 250 g/ha, evaluated after 13 days, 100=total damage to plant, 0=no damage to plant. How it is done: as §1
Assay [3] concerns Avena fatua (AVEFA). Described as above. The settings on record: Avena fatua, 312 h, rate 250 g/ha, evaluated after 13 days, 100=total damage to plant, 0=no damage to plant. How it is done: as §1
Assay [4] concerns Lolium perenne (LOLPE). The description is as above. The settings on record: rate 250 g/ha, evaluated after 13 days, 100=total damage to plant, 0=no damage to plant; for pest or weed control at 250 g/ha: Lolium perenne, 312 h. The protocol:
as §1

The test system of assay [5] is Alopecurus myosuroides (ALOMY). Briefly: Pre-emergence herbicidal activity, glasshouse pot test. The settings on record: rate 250 g/ha, evaluated after 13 days, 100=total damage to plant, 0=no damage to plant; for pest or weed control at 250 g/ha: Alopecurus myosuroides, 312 h. The protocol:
as §1, with “Pre-Emergence” for “Post-Emergence”

Assay [6] has as its system Echinochloa crus-galli (ECHCG). The description is as above. The settings on record: Echinochloa crus-galli, 312 h, rate 250 g/ha, evaluated after 13 days, 100=total damage to plant, 0=no damage to plant. How it is done: as §1, with “Pre-Emergence” for “Post-Emergence”
For assay [7], the system named is Avena fatua (AVEFA). Described as above. The conditions noted are these: rate 250 g/ha, evaluated after 13 days, 100=total damage to plant, 0=no damage to plant; for pest or weed control at 250 g/ha: Avena fatua, 312 h. How it is done:
as §1, with “Pre-Emergence” for “Post-Emergence”

The subject of assay [8] is Lolium perenne (LOLPE). The description is as above. The settings on record: Lolium perenne, 312 h, rate 250 g/ha, evaluated after 13 days, 100=total damage to plant, 0=no damage to plant. The protocol: as §1, with “Pre-Emergence” for “Post-Emergence”

From US8680339B2, “Herbicides” (Syngenta Limited, priority 2009, dated 2014) come the findings set out here.

The term pest or weed control denotes how far the test organism was held down. Read a high pest or weed control as strong suppression.

With `Cc1cc(Oc2ccc(C(F)(F)F)cn2)cc(C)c1C1=C(O)C2C(C1=O)[C@H]1CC[C@@H]2CC1` (stereo partly shown) [Compound A-19], the pest or weed control at 250 g/ha in assay [1] stood at 10%; in assay [2] it was 60%; in the assay on Avena fatua (AVEFA) [3], 10%; in the assay with Lolium perenne (LOLPE) [4], 0%; in assay [5], 0%; in assay [6], 10%. The pest or weed control at 250 g/ha in the assay on Avena fatua (AVEFA) [7] and with Lolium perenne (LOLPE) [8] was 0% in each case.

In the case of `CCc1cc(Oc2ccc(Br)cc2F)ccc1C1=C(O)[C@H]2[C@@H](C1=O)[C@@H]1CC[C@H]2O1` [Compound A-1], the pest or weed control at 250 g/ha in assay [1] came to 70%; in assay [2] it was 100%; with Avena fatua (AVEFA) [3], 80%; in the assay with Lolium perenne (LOLPE) [4], 70%; in assay [5] it was 20%; in assay [6], 30%. Moreover, the pest or weed control at 250 g/ha in the assay on Avena fatua (AVEFA) [7] came to 0%; in the assay on Lolium perenne (LOLPE) [8] it was 20%.

For the compound `Cc1cc(Oc2cccc(Cl)c2)cc(C)c1C1=C(O)[C@H]2[C@@H](C1=O)[C@@H]1CC[C@H]2O1` [Compound A-14], the pest or weed control at 250 g/ha in assay [1] came to 70%; in assay [2], 80%; with Avena fatua (AVEFA) [3], 30%; in the assay on Lolium perenne (LOLPE) [4] it was 70%; in assay [5], 40%; in assay [6] it was 80%. Moreover, the pest or weed control at 250 g/ha in the assay on Avena fatua (AVEFA) [7] worked out at 0%; with Lolium perenne (LOLPE) [8], 70%.

Take `Cc1cc(Oc2ccc(Br)cc2Cl)cc(C)c1C1=C(O)[C@H]2[C@@H](C1=O)[C@@H]1CC[C@H]2O1` [Compound A-12]: the pest or weed control at 250 g/ha in assay [1] was determined as 80%; in assay [2] it was 100%; with Avena fatua (AVEFA) [3], 70%; in the assay with Lolium perenne (LOLPE) [4] it was 70%; in assay [5] it was 40%; in assay [6], 60%. The pest or weed control at 250 g/ha worked out at 10% with Avena fatua (AVEFA) [7] and 70% in the assay with Lolium perenne (LOLPE) [8].

Regarding `Cc1cc(Oc2ncc(Cl)cc2F)cc(C)c1C1=C(O)C2C(C1=O)[C@H]1CC[C@@H]2CC1` (stereo partly shown) [Compound A-20, 2-[4-(5-chloro-3-fluoropyridin-2-yloxy)-2,6-dimethylphenyl]hexahydro-4,7-ethanoindene-1,3-dione], the pest or weed control at 250 g/ha in assay [1] amounted to 50%; in assay [2] it was 70%; in the assay with Avena fatua (AVEFA) [3] it was 20%; in the assay with Lolium perenne (LOLPE) [4], 30%; in assay [5] it was 40%; in assay [6], 60%. Besides, the results for the pest or weed control at 250 g/ha in the assay with Avena fatua (AVEFA) [7] and in the assay on Lolium perenne (LOLPE) [8] were 0% and 20%, respectively.

Regarding `Cc1cc(Oc2cccc(F)c2F)cc(C)c1C1=C(O)[C@H]2[C@@H](C1=O)[C@@H]1CC[C@H]2O1` [Compound A-8], the pest or weed control at 250 g/ha in assay [1] was determined as 80%; in assay [2], 90%; in the assay on Avena fatua (AVEFA) [3] it was 40%; in the assay on Lolium perenne (LOLPE) [4] it was 80%; in assay [5], 40%; in assay [6] it was 40%. Also, the pest or weed control at 250 g/ha with Avena fatua (AVEFA) [7] worked out at 0%; in the assay with Lolium perenne (LOLPE) [8], 30%.

For the compound `Cc1cc(Oc2ccc(F)cc2F)cc(C)c1C1=C(O)[C@H]2[C@@H](C1=O)[C@@H]1CC[C@H]2O1` [Compound A-6], the pest or weed control at 250 g/ha in assay [1] was determined as 90%; in assay [2], 90%; in the assay with Avena fatua (AVEFA) [3] it was 70%; in the assay on Lolium perenne (LOLPE) [4] it was 70%; in assay [5], 70%; in assay [6] it was 70%. The pest or weed control at 250 g/ha was 30% with Avena fatua (AVEFA) [7] and 80% in the assay with Lolium perenne (LOLPE) [8].

`Cc1cc(Oc2ncc(Cl)cc2F)cc(C)c1C1=C(O)[C@H]2[C@H]3CC[C@H](C3)[C@H]2C1=O` [Compound A-18]: the pest or weed control at 250 g/ha was 30% in assay [1]; 70% in assay [2]; 30% with Avena fatua (AVEFA) [3]; 10% in the assay with Lolium perenne (LOLPE) [4]; 10% in assay [5]; 40% in assay [6]. Moreover, the pest or weed control at 250 g/ha with Avena fatua (AVEFA) [7] and in the assay on Lolium perenne (LOLPE) [8] was 0% throughout.

For the compound `Cc1cc(Oc2ccc(Br)cc2)cc(C)c1C1=C(O)[C@H]2[C@@H](C1=O)[C@@H]1CC[C@H]2O1` [Compound A-11], the pest or weed control at 250 g/ha in assay [1] was 90%; in assay [2], 100%; in the assay on Avena fatua (AVEFA) [3], 90%; in the assay with Lolium perenne (LOLPE) [4], 90%; in assay [5], 90%; in assay [6], 70%. Besides, the pest or weed control at 250 g/ha with Avena fatua (AVEFA) [7] stood at 90%; in the assay on Lolium perenne (LOLPE) [8], 100%.

Consider `CCc1cc(Oc2ccc(Cl)cc2)ccc1C1=C(O)CCC1=O` [Compound A-32, 2-[4-(4-chlorophenoxy)-2-ethylphenyl]cyclopentane-1,3-dione], for which the pest or weed control at 250 g/ha in assay [1] is 0%; in assay [2], 0%; in the assay on Avena fatua (AVEFA) [3], 0%; in the assay on Lolium perenne (LOLPE) [4], 0%; in assay [5] it was 0%; in assay [6] it was 50%. In addition, the pest or weed control at 250 g/ha with Avena fatua (AVEFA) [7] was determined as 0%; in the assay on Lolium perenne (LOLPE) [8] it was 10%.

With `Cc1cc(Oc2ncc(Cl)cc2F)cc(C)c1C1=C(O)[C@H]2[C@@H](C1=O)[C@@H]1CC[C@H]2O1` [Compound A-24], the pest or weed control at 250 g/ha in assay [1] was found to be 80%; in assay [2], 90%; with Avena fatua (AVEFA) [3], 80%; with Lolium perenne (LOLPE) [4], 90%; in assay [6], 70%; in the assay on Lolium perenne (LOLPE) [8], 80%. In assay [5], the “damage to plant ALOMY” value is 100. The “damage to plant AVEFA” value in the assay on Avena fatua (AVEFA) [7] is given as 60.

Take `Cc1cc(Oc2ccccc2F)cc(C)c1C1=C(O)[C@H]2[C@@H](C1=O)[C@@H]1CC[C@H]2O1` [Compound A-5]: the pest or weed control at 250 g/ha in assay [1] worked out at 60%; in assay [2], 90%; in the assay on Avena fatua (AVEFA) [3], 50%; in the assay on Lolium perenne (LOLPE) [4], 70%; in assay [5], 40%; in assay [6], 60%. The pest or weed control at 250 g/ha in the assay on Avena fatua (AVEFA) [7] amounted to 30%; in the assay with Lolium perenne (LOLPE) [8], 50%.

For `Cc1cc(Oc2ccc(C(F)(F)F)cn2)cc(C)c1C1=C(O)[C@H]2[C@H]3CC[C@H](C3)[C@H]2C1=O` [Compound A-17, meso-(3aS,4S,7R,7aR)-2-[2,6-dimethyl-4-(5-trifluoromethylpyridin-2-yloxy)phenyl]-hexahydro-4,7-methanoindene-1,3-dione], the pest or weed control at 250 g/ha in assay [1] was 10%; in assay [2], 40%; in the assay with Avena fatua (AVEFA) [3], 10%; with Lolium perenne (LOLPE) [4], 10%; in assay [5] it was 0%; in assay [6] it was 30%. Also, the pest or weed control at 250 g/ha in the assay on Avena fatua (AVEFA) [7] and in the assay on Lolium perenne (LOLPE) [8] was 0% in each case.

For the compound `Cc1cc(Oc2cnc3cc(Cl)ccc3n2)cc(C)c1C1=C(O)[C@H]2[C@@H](C1=O)[C@@H]1CC[C@H]2O1` [Compound A-22], the “damage to plant ALOMY” value in assay [1] was determined as 100. Moreover, the pest or weed control at 250 g/ha in assay [2] was determined as 90%; in the assay with Avena fatua (AVEFA) [3], 100%; in assay [5], 50%; in assay [6], 90%; with Lolium perenne (LOLPE) [8] it was 80%. The “damage to plant LOLPE” value in the assay on Lolium perenne (LOLPE) [4] came to 100. Also, in the assay with Avena fatua (AVEFA) [7], the “damage to plant AVEFA” value was 50.
